Laboratory results: ChEMBL document CHEMBL5661943, “ASAP - In vitro antiviral effect” (2024)
Several values for one entry are separate records, joined by “and”; a condition that tells them apart may be missing. Identical values can stand only once.

Tests used:
[1] = system: Zika virus; test: EC50 is reported via analysis of immunofluorescence staining. The assay has been performed by Icahn School of Medicine at Mount Sinai.; type: functional, organism-based, Chlorocebus sabaeus, VeroE6/TMPRSS2; details: for EC90: P-gp concentration 2 uM, P-gp inhibitor Elacidar
[2] = system: Zika virus; test: Functional CPE-based assay to measure dose dependent changes in antiviral-drug inhibitory efficacy against Zika virus MR766 in Vero E6 miRFP670 cells (cotreated with P-gp inhibitor, CP100356). Cells are treated with antiviral candidates that are serially diluted. EC50 is reported via analysis of MTS assay as a readout of CPE. The assay has been performed by KU Leuven.; type: organism-based, Chlorocebus sabaeus, Vero C1008; details: Zika virus; for EC90: P-gp concentration 500 nM, P-gp inhibitor CP100356
[3] = system: dengue virus type 2; test: Functional immunofluorescence assay to measure dose dependent changes in antiviral-drug inhibitory efficacy against Dengue virus type 2 Thailand/16681/84 in Vero E6/TMPRSS2 cells (cotreated with P-gp inhibitor, Elacridar). Cells are treated with antiviral candidates that are serially diluted, following infection, cells are fixed. EC50 is reported via analysis of immunofluorescence staining. The assay has been performed by Icahn School of Medicine at Mount Sinai.; type: organism-based, Chlorocebus sabaeus, VeroE6/TMPRSS2; details: Dengue virus; for EC90: P-gp concentration 2 uM, P-gp inhibitor Elacidar
[4] = system: dengue virus type 2; test: Functional assay to measure dose dependent changes in antiviral-drug inhibitory efficacy against Dengue virus type 2 New Guinea C in Vero E6 miRFP670 cells (cotreated with P-gp inhibitor, CP100356). Cells are treated with antiviral candidates that are serially diluted, following infection, cells are fixed. EC50 is reported via analysis of fluorescence intensity using high-content imager. The …; type: organism-based, Chlorocebus sabaeus, Vero C1008; details: for EC90: P-gp concentration 500 nM, P-gp inhibitor CP100356

O=C(Nc1ccc2c(n1)CNC2)c1cc(Cl)cc2[nH]ncc12
EC50 ([1]; Zika virus, VeroE6/TMPRSS2): 5.29 µM | EC90 ([1]; Zika virus, VeroE6/TMPRSS2, Baseline response 0 %, Hill slope -0.136, Maximum measured 80.309 %, Maximum response 100 %, Minimum measured 35.788 %, R squared 0.184): > 50 µM | EC50 ([2]; Vero C1008): > 50 µM | EC90 ([2]; Vero C1008, Baseline response 0 %, Hill slope 0.276, Maximum measured 8.826 %, Maximum response 100 %, Minimum measured 2.871 %, R squared 0.346): > 50 µM | EC50 ([3]; VeroE6/TMPRSS2): 33.2 µM | EC90 ([3]; VeroE6/TMPRSS2, Baseline response 0 %, Hill slope -0.91, Maximum measured 153.42 %, Maximum response 100 %, Minimum measured 44.335 %, R squared 0.461): > 50 µM | EC50 ([4]; Dengue virus, Vero C1008): > 50 µM | EC90 ([4]; Dengue virus, Vero C1008, Baseline response 0 %, Hill slope 0.339, Maximum measured 101.822 %, Maximum response 100 %, Minimum measured 73.077 %, R squared 0.116): > 50 µM

CNC(=O)[C@H](Nc1ccc2c(c1)CNC2)c1cc(Cl)cc2[nH]ncc12
EC50 ([1]; Zika virus, VeroE6/TMPRSS2): > 50 µM | EC90 ([1]; Zika virus, VeroE6/TMPRSS2, Maximum measured 122.029 %, Minimum measured 43.627 %): > 50 µM | EC90 ([1]; Zika virus, VeroE6/TMPRSS2, Baseline response 0 %, Hill slope 0.082, Maximum measured 101.866 %, Maximum response 100 %, Minimum measured 51.114 %, R squared 0.025): > 50 µM | EC50 ([2]; Vero C1008): > 50 µM | EC90 ([2]; Vero C1008, Baseline response 0 %, Hill slope 0.1, Maximum measured 6.056 %, Maximum response 100 %, Minimum measured 1.325 %, R squared 0.024): > 50 µM | EC50 ([3]; VeroE6/TMPRSS2): > 50 µM | EC90 ([3]; VeroE6/TMPRSS2, Maximum measured 241.837 %, Minimum measured 83.65 %): > 50 µM | EC50 ([4]; Dengue virus, Vero C1008): > 50 µM | EC90 ([4]; Dengue virus, Vero C1008, Baseline response 0 %, Hill slope 0.363, Maximum measured 102.287 %, Maximum response 100 %, Minimum measured 71.268 %, R squared 0.122): > 50 µM

O=C(NCc1ccc(F)cc1)[C@H](Nc1ccc2c(c1)CNC2)c1cc(Cl)cc2[nH]ncc12
EC90 ([1]; Baseline response 0 %, EC90 CI (lower) 0.003 uM, EC90 CI (upper) 0.037 uM, Hill slope -0.964, Maximum measured 95.888 %, Maximum response 100 %, Minimum measured 15.187 %, R squared 0.753): 0.949 µM | EC90 ([1]; Baseline response 0 %, Hill slope -0.072, Maximum measured 102.654 %, Maximum response 100 %, Minimum measured 56.434 %, R squared 0.024): > 16.7 µM | EC50 ([2]; Vero C1008): > 50 µM | EC90 ([2]; Vero C1008, Maximum measured 1.197 %, Minimum measured -8.607 %): > 50 µM | EC50 ([3]; VeroE6/TMPRSS2): > 50 µM | EC90 ([3]; VeroE6/TMPRSS2, Maximum measured 150.332 %, Minimum measured 95.286 %): > 50 µM | EC50 ([4]; Dengue virus, Vero C1008): > 50 µM | EC90 ([4]; Dengue virus, Vero C1008, Maximum measured 108.299 %, Minimum measured 100.399 %): > 50 µM

O=C(Nc1cc(Cl)cc(C(=O)Nc2ccc(-n3nn[nH]c3=O)cc2)c1)OCc1ccccc1
EC50 ([1]; Zika virus, VeroE6/TMPRSS2): 49.1 µM | EC90 ([1]; Zika virus, VeroE6/TMPRSS2, Baseline response 0 %, Hill slope -16.502, Maximum measured 156.276 %, Maximum response 100 %, Minimum measured 42.402 %, R squared 0.326): > 50 µM | EC50 ([2]; Vero C1008): > 50 µM | EC90 ([2]; Vero C1008, Baseline response 0 %, Hill slope 1.628, Maximum measured 15.335 %, Maximum response 100 %, Minimum measured -0.05 %, R squared 0.878): > 50 µM | EC50 ([3]; VeroE6/TMPRSS2): 11.4 µM | EC90 ([3]; VeroE6/TMPRSS2, Baseline response 0 %, Hill slope -0.45, Maximum measured 123.141 %, Maximum response 100 %, Minimum measured 41.064 %, R squared 0.456): > 16.7 µM | EC90 ([4]; Baseline response 0 %, EC90 CI (lower) 3.172 uM, EC90 CI (upper) 10.269 uM, Hill slope -8.96, Maximum measured 107.351 %, Maximum response 100 %, Minimum measured 0.837 %, R squared 0.832): 9.32 µM | EC90 ([4]; Baseline response 0 %, Hill slope -35.644, Maximum measured 130.696 %, Maximum response 100 %, Minimum measured 29.339 %, R squared 0.657): > 50 µM | EC50 ([4]; vero c1008): 7.29 µM and 48.8 µM

Cc1cc(C(=O)Nc2ccc3c(c2)CNC3)c2cn[nH]c2c1
EC90 ([1]; Baseline response 0 %, Hill slope -2.011, Maximum measured 89.225 %, Maximum response 60 %, Minimum measured 14.739 %, R squared 0.55): > 50 µM | EC90 ([1]; Zika virus, VeroE6/TMPRSS2, Baseline response 0 %, Hill slope -0.435, Maximum measured 146.607 %, Maximum response 100 %, Minimum measured 37.409 %, R squared 0.47): > 50 µM | EC50 ([1]; veroe6/tmprss2): 4.92 µM and 30 µM | EC50 ([2]; Vero C1008): 7.79 µM | EC90 ([2]; Vero C1008, Baseline response 0 %, EC90 CI (lower) 4.895 uM, EC90 CI (upper) 50.446 uM, Hill slope 3.132, Maximum measured 172.887 %, Maximum response 100 %, Minimum measured 3.006 %, R squared 0.777): 15.7 µM | EC50 ([3]; VeroE6/TMPRSS2): > 16.7 µM | EC90 ([3]; VeroE6/TMPRSS2, Baseline response 0 %, Hill slope -0.131, Maximum measured 111.871 %, Maximum response 100 %, Minimum measured 74.867 %, R squared 0.056): > 16.7 µM | EC50 ([4]; Dengue virus, Vero C1008): > 50 µM | EC90 ([4]; Dengue virus, Vero C1008, Maximum measured 131.325 %, Minimum measured 92.066 %): > 50 µM

N[C@H]1Cc2ccc(NC(=O)c3cc(Cl)cc4[nH]ncc34)cc2C1
EC50 ([1]; Zika virus, VeroE6/TMPRSS2): 6.4 µM | EC90 ([1]; Zika virus, VeroE6/TMPRSS2, Baseline response 0 %, Hill slope -0.367, Maximum measured 76.386 %, Maximum response 70 %, Minimum measured 22.981 %, R squared 0.54): > 50 µM | EC50 ([2]; Vero C1008): > 50 µM | EC90 ([2]; Vero C1008, Baseline response 0 %, Hill slope 8.874, Maximum measured 2.747 %, Maximum response 100 %, Minimum measured -3.726 %, R squared 0.015): > 50 µM | EC50 ([3]; VeroE6/TMPRSS2): > 50 µM | EC90 ([3]; VeroE6/TMPRSS2, Baseline response 0 %, Hill slope -1.504, Maximum measured 137.122 %, Maximum response 100 %, Minimum measured 76.636 %, R squared 0.034): > 50 µM | EC50 ([4]; Dengue virus, Vero C1008): > 50 µM | EC90 ([4]; Dengue virus, Vero C1008, Baseline response 0 %, Hill slope -0.493, Maximum measured 107.038 %, Maximum response 100 %, Minimum measured 74.642 %, R squared 0.117): > 50 µM

COC(=O)CNC(=O)[C@H](Nc1ccc2c(c1)CNC2)c1cc(Cl)cc(C2CC2)c1
EC90 ([1]; Zika virus, VeroE6/TMPRSS2, Maximum measured 147.006 %, Minimum measured 69.301 %): > 16.7 µM | EC90 ([1]; Zika virus, VeroE6/TMPRSS2, Baseline response 0 %, Hill slope -5.229, Maximum measured 154.716 %, Maximum response 100 %, Minimum measured 79.745 %, R squared 0.023): > 5.56 µM | EC50 ([1]; veroe6/tmprss2): > 16.7 µM | EC50 ([2]; Vero C1008): > 50 µM | EC90 ([2]; Vero C1008, Baseline response 0 %, Hill slope 2.666, Maximum measured 16.971 %, Maximum response 100 %, Minimum measured -1.569 %, R squared 0.882): > 50 µM | EC50 ([3]; VeroE6/TMPRSS2): > 50 µM | EC90 ([3]; VeroE6/TMPRSS2, Maximum measured 158.675 %, Minimum measured 120.715 %): > 50 µM | EC50 ([4]; Dengue virus, Vero C1008): > 50 µM | EC90 ([4]; Dengue virus, Vero C1008, Maximum measured 109.152 %, Minimum measured 106.626 %): > 50 µM

N#Cc1cc(C(=O)Nc2ccc3c(c2)CNC3)cc(C(F)(F)F)c1
EC50 ([1]; Zika virus, VeroE6/TMPRSS2): > 50 µM | EC90 ([1]; Zika virus, VeroE6/TMPRSS2, Maximum measured 132.778 %, Minimum measured 43.807 %): > 50 µM | EC50 ([2]; Vero C1008): > 50 µM | EC90 ([2]; Vero C1008, Baseline response 0 %, Hill slope 0.826, Maximum measured 10.885 %, Maximum response 100 %, Minimum measured 0.969 %, R squared 0.373): > 50 µM | EC50 ([3]; VeroE6/TMPRSS2): 23.5 µM | EC90 ([3]; VeroE6/TMPRSS2, Baseline response 0 %, Hill slope -2.224, Maximum measured 139.741 %, Maximum response 100 %, Minimum measured 16.816 %, R squared 0.66): > 50 µM | EC50 ([4]; Dengue virus, Vero C1008): > 50 µM | EC90 ([4]; Dengue virus, Vero C1008, Baseline response 0 %, Hill slope 0.474, Maximum measured 101.337 %, Maximum response 100 %, Minimum measured 73.182 %, R squared 0.159): > 50 µM

Cc1ccc(NC(=O)c2cc(Cl)cc3[nH]ncc23)cc1CN
EC50 ([1]; Zika virus, VeroE6/TMPRSS2): 23.7 µM | EC90 ([1]; Zika virus, VeroE6/TMPRSS2, Baseline response 0 %, Hill slope -0.507, Maximum measured 128.919 %, Maximum response 100 %, Minimum measured 43.47 %, R squared 0.43): > 50 µM | EC50 ([2]; Vero C1008): > 50 µM | EC90 ([2]; Vero C1008, Maximum measured -0.519 %, Minimum measured -6.318 %): > 50 µM | EC50 ([3]; VeroE6/TMPRSS2): > 50 µM | EC90 ([3]; VeroE6/TMPRSS2, Baseline response 0 %, Hill slope -2.664, Maximum measured 202.734 %, Maximum response 169.492 %, Minimum measured 72.11 %, R squared 0.716): > 50 µM | EC50 ([4]; Dengue virus, Vero C1008): 29.2 µM | EC90 ([4]; Dengue virus, Vero C1008, Baseline response 0 %, Hill slope -1.708, Maximum measured 106.876 %, Maximum response 100 %, Minimum measured 12.632 %, R squared 0.516): > 50 µM
